Common to all, as to assay: MTT cytotoxic/antiproliferative activity, 72 h
Holding throughout (assay type): cell-based, human

Assay [1] relates to RD. As to conditions: MTT, 72 h.
The test system of assay [2] is HCT116. As to conditions: HCT116, MTT, 72 h.
For assay [3], the system named is NCI-H2228. The conditions noted are these: NCI-H2228, MTT, 72 h.
In assay [4] the test system is MDA-MB-231. The conditions noted are these: MDA-MB-231, MTT, 72 h.
For assay [5], the system named is A549. The conditions noted are these: A549, MTT, 72 h.

The structures appear in SMILES notation.

In the case of `O=C1[O][Pt]2([NH][C@@H]3CCCC[C@H]3[NH]2)[O]C1=O` [OxPt, oxaliplatin, reference compound], the concentration for half-maximal inhibition (IC50) (usually the midpoint of a concentration-inhibition curve) in assay [1] stood at 4.3 ± 0.5 µM; in assay [2], 1.3 ± 0.1 µM; in assay [3] it was 3.8 ± 0.4 µM; in assay [4], 6.2 ± 0.9 µM; in assay [5] it was 1.6 ± 0.6 µM.

Source of the values: paper PMC12670396, “Crizotinib- or Ceritinib-Conjugated Platinum(IV) Prodrugs As Potent Multiaction Agents Inducing Antiproliferative Effects in 2D and 3D Cancer Cell Models” (Journal of Medicinal Chemistry, 2025).
